Assay results reported in ChEMBL document CHEMBL5223152, “Recent advances toward the development of Hsp90 C-terminal inhibitors” (Bioorg Med Chem Lett, 2023).
pEC50, pIC50, pKd: −log10 of the molar value. Blank lines part the entries; values can stand above or below the molecule they belong to.

What was measured:
[1] = target: T1, Heat shock protein HSP 90-alpha (Homo sapiens, UniProt P07900); assay: Binding affinity to human recombinant HSP90alpha C-terminal domain (563 to 732 residues) expressed in Escherichia coli BL21(DE3) cells assessed as dissociation constant incubated for 15 mins by microscale thermophoresis analysis
K562 = assay: Antiproliferative activity against BCR-ABL1 positive human K562 cells assessed as inhibition of cell growth incubated for 72 hrs by ATP-based celltiter Glo assay; type: functional; settings: K562, 72 h
HCT-116 = assay: Antiproliferative activity against human HCT-116 cells assessed as reduction in cell viability incubated for 72 hrs by MTT assay; type: functional, cell-based; settings: HCT-116, 72 h
SK-BR-3 [2] = assay: Antiproliferative activity against human SK-BR-3 cells assessed as inhibition of cell proliferation; type: functional, cell-based
NCI-H1299 [3] = assay: Antiproliferative activity against human NCI-H1299 cells assessed as inhibition of cell growth; type: functional, cell-based
[4] = target: T1, Heat shock protein HSP 90-alpha; assay: Inhibition of recombinant GST-tagged HSP90alpha NTD (9 to 236 residues) (unknown origin) ATPase activity expressed in Escherichia coli BL21 (DE3)
NCI-H1299 [5] = assay: Antiproliferative activity against human NCI-H1299 cells assessed as reduction in cell viability incubated for 2 to 3 days by MTT assay; type: functional, cell-based
Heat shock protein HSP90 = Heat shock protein HSP90 (Homo sapiens, UniProt P07900+P08238); assay: Binding affinity to NT-647 labelled recombinant HSP90 (unknown origin) C-terminal domain assessed as dissociation constant by microscale thermophoresis analysis; type: protein assay
NCI-H1299 [6] = assay: Antiproliferative activity against human NCI-H1299 cells assessed as reduction in cell viability incubated for 5 days by MTT assay; type: functional, cell-based; settings: NCI-H1299, 120 h
UACC-62 = assay: Antiproliferative activity against human UACC-62 cells assessed as inhibition of cell growth; type: functional
MDA-MB-231 = assay: Antiproliferative activity against human MDA-MB-231 cells assessed as inhibition of cell growth incubated for 48 to 72 hrs by MTS assay; type: functional, cell-based
Jurkat = assay: Antiproliferative activity against human jurkat cells assessed as reduction in cell viability incubated for 48 hrs by MTT assay; type: functional, cell-based
NCI-H1299 [7] = assay: Antiproliferative activity against human NCI-H1299 cells assessed as inhibition of cell growth incubated for 3 days by MTT assay; type: functional, cell-based; settings: NCI-H1299, 72 h
MCF7 [8] = assay: Antiproliferative activity against human MCF7 cells assessed as inhibition of cell proliferation incubated for 72 hrs by MTS assay; type: functional, cell-based; settings: MCF7, 72 h
SK-BR-3 [9] = assay: Antiproliferative activity against human SK-BR-3 cells assessed as inhibition of cell proliferation incubated for 72 hrs by MTS proliferation assay; type: functional, cell-based; settings: SK-BR-3, 72 h
[10] = target: T1, Heat shock protein HSP 90-alpha; assay: Binding affinity to recombinant human HSP90alpha assessed as dissociation constant measured for 300 secs by SPR analysis
[11] = Antiproliferative activity against human LNCap-LN3 cells assessed as inhibition of cell growth incubated for 24 hrs by CellTiter-glo luminescence assay; type: functional, cell-based; settings: LNCaP-LN3, 24 h
[12] = target: Heat shock protein HSP 90-beta (Homo sapiens, UniProt P08238); assay: Binding affinity to recombinant HSP90beta (unknown origin) assessed as dissociation constant incubated for 30 mins by intrinsic fluorescence based spectroscopic analysis
[13] = target: T1, Heat shock protein HSP 90-alpha; assay: Binding affinity to recombinant HSP90alpha (unknown origin) assessed as dissociation constant incubated for 30 mins by intrinsic fluorescence based spectroscopic analysis
UMSCC22B = assay: Antiproliferative activity against human UMSCC22B cells assessed as inhibition of orosphere formation incubated for 10 to 14 days by light microscopic analysis; type: functional, cell-based
MCF7 [14] = assay: Antiproliferative activity against human MCF7 cells assessed as inhibition of cell proliferation by MTS assay; type: functional, cell-based
SK-N-MC = assay: Antiproliferative activity against human SK-N-MC cells assessed as inhibition of cell proliferation by MTS assay; type: functional, cell-based

Sequence of Heat shock protein HSP 90-beta (P08238 whole entry): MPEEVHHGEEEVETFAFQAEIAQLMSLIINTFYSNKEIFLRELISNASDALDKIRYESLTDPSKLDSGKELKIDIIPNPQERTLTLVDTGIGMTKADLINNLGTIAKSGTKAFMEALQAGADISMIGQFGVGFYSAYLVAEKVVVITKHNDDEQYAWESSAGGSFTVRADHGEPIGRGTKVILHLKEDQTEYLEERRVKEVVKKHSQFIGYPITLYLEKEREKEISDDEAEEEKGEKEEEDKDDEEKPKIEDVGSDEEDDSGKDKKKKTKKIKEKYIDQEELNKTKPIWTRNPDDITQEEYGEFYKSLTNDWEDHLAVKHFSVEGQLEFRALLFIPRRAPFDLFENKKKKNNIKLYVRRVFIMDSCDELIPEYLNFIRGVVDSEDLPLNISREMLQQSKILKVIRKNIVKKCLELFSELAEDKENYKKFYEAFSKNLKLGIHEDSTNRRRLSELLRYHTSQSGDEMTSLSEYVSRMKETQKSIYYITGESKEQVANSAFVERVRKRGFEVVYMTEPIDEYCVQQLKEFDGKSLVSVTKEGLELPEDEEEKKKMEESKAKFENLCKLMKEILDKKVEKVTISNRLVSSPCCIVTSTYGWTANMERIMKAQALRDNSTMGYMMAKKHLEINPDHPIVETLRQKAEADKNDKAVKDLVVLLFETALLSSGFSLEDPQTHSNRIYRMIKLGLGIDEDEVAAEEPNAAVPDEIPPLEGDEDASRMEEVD

pKd [1]: 5.47
pIC50 (K562): 5.89
SMILES: CCC(C)n1c(C(=O)NC2CN=C(C(=O)NC)N(CC(C)C)C2=O)ncc(NC(=O)c2ncc(NC(=O)c3ccccc3)c(=O)n2Cc2ccc(OC)cc2)c1=O (stereo not given)

pIC50 (HCT-116): 6.48
SMILES: COc1ccc2c(c1OC)O[C@]13C(=O)N4O[C@H]5[C@H](O)C=C[C@@H](Cl)[C@@]5(O)C[C@@]4(SS[C@H]21)C(=O)N3C

pIC50 (SK-BR-3 [2]): 6.17
SMILES: COc1cccc(-c2cc(C(=O)Nc3ccc(/C=C/c4ccc(OC5CCN(C)CC5)cc4)cc3)ccc2OC)c1

IC50 (NCI-H1299 [3]): 140 nM
SMILES: COc1ccc(CC(=O)c2ccc3c(c2OC)C=CC(C)(C)O3)cc1OC

pIC50 [4]: 3.92
SMILES: CC(C)(C)CC(C)(C)NCC(O)COc1ccc(C(C)(C)c2ccc(OCC(O)CNC(C)(C)CC(C)(C)C)cc2)cc1 (stereo not given)

pIC50 (NCI-H1299 [5]): 6.64
SMILES: COc1cc(NC(=O)c2ccc3c(c2OC)C=CC(C)(C)O3)ccc1OCCc1ccncc1

pIC50 (NCI-H1299 [3]; Homo sapiens, NCI-H1299, read-out: IC50): 6.00
SMILES: COc1cc2nccc(C(OC(=O)C3CC3)c3ccc4c(c3OC)C=CC(C)(C)O4)c2cc1OC (stereo not given)

Kd (Heat shock protein HSP90): 27400 nM
SMILES: CC[C@@H](C)[C@@H](ONC(=O)[C@H](ONC(=O)[C@@H](Cc1ccccc1)ONC(=O)[C@@H](Cc1ccccc1)ONC(=O)OCc1ccccc1)[C@H](C)CC)C(=O)NO[C@H](CC(C)C)C(=O)NO[C@H](CC(C)C)C(N)=O

pEC50 (NCI-H1299 [6]): 6.64
SMILES: COc1cc(NC(=O)c2ccc3c(c2OC)C=CC(C)(C)O3)ccc1OCCc1cccnc1

SMILES: COc1cccc(-c2cc(NC(=O)Nc3cc4ccc(OC5CCN(C)CC5)c(C)c4oc3=O)ccc2C)c1
IC50 (UACC-62): 360 nM

pIC50 (MDA-MB-231): 5.30
SMILES: COc1cc2nccc(C(OC(=O)C3CC3)c3ccc4c(c3)C=CC(C)(C)O4)c2cc1OC (stereo not given)

pIC50 (Jurkat): 4.82
SMILES: CCOC(=O)C1=C(C)N(c2ccccc2)C(=O)NC1c1cc(O)ccc1Br (stereo not given)

pIC50 (NCI-H1299 [7]): 6.00
SMILES: COc1cc2nccc(C(OC(C)=O)c3ccc4c(c3OC)C=CC(C)(C)O4)c2cc1OC (stereo not given)

pIC50 (MCF7 [8]): 4.50
SMILES: Cc1ccc(Cl)c(OCC2(O)CCN(Cc3ccc(OCCN4CCOCC4)cc3)CC2)c1

pIC50 (SK-BR-3 [9]): 5.70
SMILES: COc1cc(NC(=O)c2ccc3c(c2OC)C=CC(C)(C)O3)ccc1OCCC1CCCCN1 (stereo not given)

pIC50 (SK-BR-3 [2]): 7.00
SMILES: Cc1ccc(Cn2cc(C(=O)Nc3ccc(/C=C/c4ccc(OC5CCN(C)CC5)cc4)cc3)nn2)cc1

pKd [10]: 7.68
SMILES: COc1ccc(NCC(=O)Nc2ncc(Cc3ccc(Cl)c(Cl)c3)s2)cc1

pKd [12]: 3.14
pKd [13]: 3.72
SMILES: Cc1c(OCCC2CCCCN2)ccc2cc(NC(=O)Nc3ccc(Cl)cc3)c(=O)oc12 (stereo not given)
pIC50 [11]: 5.70

SMILES: Cc1c(OC2CCN(C)CC2)ccc2cc(NC(=S)Nc3cccc(Cl)c3)c(=O)oc12
pIC50 (UMSCC22B): 4.70

SMILES: COc1cccc(-c2cccc(NC(=O)Nc3cc4ccc(OC5CCN(C)CC5)c(C)c4oc3=O)c2)c1
pIC50 (UMSCC22B): 6.00

pIC50 (MCF7 [14]): 5.85
pIC50 (SK-N-MC): 5.55
SMILES: Nc1c(C(=O)c2ccc(-c3ccc(Br)cc3)cc2)sc2nc3c(c(-c4ccccc4)c12)CNCC3
